Reference: publication PMC11802874, “The hypolipidemic effect of MI-883, the combined CAR agonist/ PXR antagonist, in diet-induced hypercholesterolemia model” (Nature Communications, 2025)
Several values for one entry are separate records, joined by “and”; a condition that tells them apart may be missing. Equal entries are not always repeated.

Assays:
human CAR variant 3 = target: T1, human CAR variant 3 (Homo sapiens, UniProt Q14994, DEL233-236); assay: CAR3 luciferase reporter assay (CYP2B6-luc) in HepG2 cells; format: cell-based
T1 construct: host or cells: HepG2
T1 sequence (Q14994 with tags, fused parts or gaps isoform Q14994-8 DEL233-236): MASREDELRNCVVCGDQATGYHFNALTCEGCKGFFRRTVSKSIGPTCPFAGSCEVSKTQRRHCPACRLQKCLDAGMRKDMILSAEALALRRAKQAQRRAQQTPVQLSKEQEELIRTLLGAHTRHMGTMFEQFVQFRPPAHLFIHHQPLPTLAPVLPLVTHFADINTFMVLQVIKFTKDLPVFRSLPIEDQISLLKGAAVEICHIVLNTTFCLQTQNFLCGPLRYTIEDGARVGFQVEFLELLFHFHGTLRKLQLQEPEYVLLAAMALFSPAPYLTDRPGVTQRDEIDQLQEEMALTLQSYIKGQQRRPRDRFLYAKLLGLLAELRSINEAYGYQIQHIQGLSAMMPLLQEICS
T1 sequence (P19793 1-462 partner): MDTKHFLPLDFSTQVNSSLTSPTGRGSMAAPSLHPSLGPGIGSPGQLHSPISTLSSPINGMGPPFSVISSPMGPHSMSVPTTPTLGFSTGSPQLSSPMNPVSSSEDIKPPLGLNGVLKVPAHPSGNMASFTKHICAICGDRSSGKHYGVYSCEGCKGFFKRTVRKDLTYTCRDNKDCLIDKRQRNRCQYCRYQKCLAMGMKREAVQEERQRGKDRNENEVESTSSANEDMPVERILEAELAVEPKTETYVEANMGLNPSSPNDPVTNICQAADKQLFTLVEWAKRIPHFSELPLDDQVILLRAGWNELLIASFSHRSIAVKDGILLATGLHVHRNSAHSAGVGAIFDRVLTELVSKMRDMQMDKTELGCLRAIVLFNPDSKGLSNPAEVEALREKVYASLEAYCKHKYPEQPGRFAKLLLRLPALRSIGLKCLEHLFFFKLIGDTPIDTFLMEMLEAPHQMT
Protocol: CAR3 luciferase reporter assay (with CYP2B6-luc) was performed in human hepatocellular carcinoma HepG2 cells as we described[19] For the CAR3 assay (Fig. 1d), a CYP2B6-luc reporter plasmid (originally entitled B-1.6k/PB/XREM) was kindly donated by Dr. Hongbing Wang (University of Maryland School of Pharmacy, Baltimore, MD, USA). All expression vectors are described in Supplementary, Chapter 4).
Cells were treated for 24 h with MI-883 in a range of concentration from 0.1 nM to 30 µM (n = 3). The half maximal effective concentration (EC50) to activate CAR or inhibit PXR (IC50) in the assays was calculated from at least eight points of the dose-response curves using the GraphPad Prism software.

[1] = test system: humanized PXR-CAR-CYP3A4/3A7 mice, liver; assay: Liver cholesterol, C4 and lathosterol analysis (HFD study); format: in vivo, mouse; parameters: liver total cholesterol (TotCh), individual animals / liver free cholesterol (Free CH), individual animals / liver cholesteryl esters (CE), individual animals / liver C4, individual animals / liver lathosterol, individual animals: unit not given here
Protocol: Cholesterol (Ch, total and free Ch), C4, and lathosterol determination were performed in liver tissue (25–80 mg fresh weight) using GC-MS according to Cohen et al.[67] (detailed protocol in Supplementary, Chapter 14). Internal standard (d7-cholesterol, Sigma Aldrich/Merck) was used. Solid phase extraction[68] and analysis were performed using LC-MS/MS as described previously. Protein quantification was done using DC Protein Assay (Bio-Rad) according to manufacturer instructions (micro assay format). All samples were analyzed for protein content in triplicates and analyzed.
Liver tissue (25-80 mg fresh weight) was diluted 10x with PBS (by weight), cut into small pieces using scissors, and treated with multiple (10-20) short pulses of ultrasound until a smooth homogenate was obtained. This 10% liver sonicate was used in subsequent analyses.
Lathosterol was measured using the same procedure as for free cholesterol with slight modifications: the volume of liver homogenate as well as the injection volume were increased (100 µL and 2 µL, respectively) while the amount of internal standard was reduced to approximately 100 ng. Also, the mixture was sonicated for 10 minutes after adding ethanol.
Liver sonicate (10%) was further diluted 30x (by weight) and 5 µL was analyzed using DC Protein Assay (Bio-Rad) according to manufacturer instructions (microassay format). Bovine serum albumin was used as standard. All samples were analyzed in triplicates.

[2] = test system: humanized PXR-CAR-CYP3A4/3A7 mice, liver; assay: RT-qPCR and Western blotting of liver samples (HFD study); format: in vivo, mouse
Protocol: RT-qPCR expression studies were performed on liver samples from eleven humanized PXR-CAR-CYP3A4/3A7 mice that were fed a high-fat diet and treated with 5 mg/kg MI-883 three times per week for four weeks. Specific TaqMan probes were used, following the protocol described in Supplementary Table S3.
Western blotting experiments have been performed in BioRad instruments with BioRad precasted gels and reagents. Antibodies are listed in Supplementary Table S4. Densitometry has been done using ChemiDoc™ MP Imaging System and software (BioRad, Hercules, USA). Data are presented as relative protein expression to control samples. For protein expression quantification, areas in histograms have been calculated and related to a reference protein.

LXRβ = LXRβ (Homo sapiens, UniProt P55055); assay: Luciferase reporter gene assay LXRβ, HepG2
Sequence of LXRβ (P55055 222-460 limits assumed): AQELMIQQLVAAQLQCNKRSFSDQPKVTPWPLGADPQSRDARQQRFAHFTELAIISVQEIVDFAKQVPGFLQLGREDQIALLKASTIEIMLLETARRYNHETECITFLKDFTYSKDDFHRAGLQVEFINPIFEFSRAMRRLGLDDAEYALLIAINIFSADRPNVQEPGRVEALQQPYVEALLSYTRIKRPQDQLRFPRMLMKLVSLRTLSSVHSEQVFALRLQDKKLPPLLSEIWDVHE
From the text: (§1) Gal4-LBD constructs of tested nuclear receptors have been used together with pGL4.31[luc2P/GAL4UAS/Hygro] luciferase reporter construct and pRL-TK Renilla expression vector (both from Promega, Hercules, USA) in HepG2 cells transfected with Lipofectamine 2000 or 3000 reagents. For GRα and FXR receptors, full-length expression vectors have been used with pGRE-luc or pFXRE-luc luciferase constructs. For the aryl hydrocarbon receptor (AhR), p1A1-luc construct was used with only pRL-TK vector for transfection normalization. A dual reporter assay (Promega, Hercules, USA) was used to analyze both firefly and Renilla luciferase activities.
(§2) Gal4-LBD constructs of tested nuclear receptors have been used together with pGL5-luc luciferase reporter construct and pRL-TK Renilla expression vector in HepG2 cells transfected with Lipofectamine 2000 or 3000 reagents. For GRα and FXR receptors, full-length expression vectors have been used with pGRE-luc or pFXRE-luc luciferase constructs. For the aryl hydrocarbon receptor (AhR), p1A1-luc construct was used with only pRL-TK vector for transfection normalization. […] Bars represent means±S.D. (n=3).

PPARδ/β = PPARδ/β (Homo sapiens, UniProt Q03181); assay: Luciferase reporter gene assay PPARδ/β, HepG2
Sequence of PPARδ/β (Q03181 211-439 limits assumed): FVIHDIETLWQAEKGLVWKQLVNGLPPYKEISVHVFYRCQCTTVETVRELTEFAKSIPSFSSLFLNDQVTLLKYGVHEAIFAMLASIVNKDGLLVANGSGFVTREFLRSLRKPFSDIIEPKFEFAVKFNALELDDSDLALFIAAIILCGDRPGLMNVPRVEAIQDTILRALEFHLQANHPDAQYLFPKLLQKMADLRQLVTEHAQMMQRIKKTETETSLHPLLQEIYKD
From the text: The luciferase reporter gene assays for FXR, LXRα, LXRβ, THα, GRα, PPARα, PPARδ/β, PPARγ, AhR, VD, ERα, ERβ and mouse Car are described in our recent paper[19]
as §1, §2

[3] = male mice, MI-883 5 mg/kg 3× per week p.o., unit not given, 5 mg/kg
[4] = FigS13, individual animals, relative to control
[5] = HFD study, Western blotting, form not given
[6] = hPXR/hCAR/hCYP3A4/7 mice, relative to control, individual animals

NC(=O)c1cc(Cn2cc(-c3c(-c4ccc(Cl)cc4)nc4cc(F)ccn34)nn2)ccc1Cl [MI-883, 2-chloro-5-((4-(2-(4-chlorophenyl)-7-fluoroimidazo[1,2-a]pyridin-3-yl)-1H-1,2,3-triazol-1-yl)methyl)benzamide]
CAR3 variant activation (Fig. 1d), replicates (human CAR variant 3; concentration 0.01 (unit not given), HepG2, 24 h): 1
CAR3 variant activation (Fig. 1d), replicates (human CAR variant 3; concentration 0.1 (unit not given)): 1.35 and 1.4 and 2.3
CAR3 variant activation (Fig. 1d), replicates (human CAR variant 3; concentration 1 (unit not given)): 4.55 and 1.6 and 1.1
CAR3 variant activation (Fig. 1d), replicates (human CAR variant 3; concentration 10 (unit not given)): 4.3 and 13.5 and 6.2
CAR3 variant activation (Fig. 1d), replicates (human CAR variant 3; concentration 30 (unit not given)): 10.05 and 10.1 and 9.78
free cholesterol in the liver (per liver protein or LW) [1]: significantly decreased
liver C4 and C4/total cholesterol [1]: did not increase
liver lathosterol, total cholesterol, cholesteryl esters (CE) [1]: did not show significant changes
liver C4, individual animals [1, 3]: 742.5 and 1060.6 and 588.1 and 517.8 and 1677.1 and 810.7 and 1283.7 and 1057.8 and 1099.9
liver cholesteryl esters (CE), individual animals [1, 3]: 23 and 16.4 and 24.1 and 22.4 and 62.3 and 32.9 and 18.7 and 38.2 and 47.6
liver free cholesterol (Free CH), individual animals [1, 3]: 40.3 and 36.2 and 35.7 and 37.4 and 37.7 and 32.3 and 38.3 and 39.6 and 40.5
liver lathosterol, individual animals [1, 3]: 1.57 and 2.018 and 2.101 and 1.895 and 2.439
liver total cholesterol (TotCh), individual animals [1, 3]: 63.3 and 52.6 and 59.8 and 100 and 65.2 and 57 and 77.8 and 88.1
Acaca mRNA (RT-qPCR) [2, 4]: 0.62 and 1.24 and 0.73 and 1.27 and 0.85 and 0.6 and 0.7 and 0.51 and 0.8 and 0.28 and 0.34
Cd36 mRNA (RT-qPCR) [2, 4]: 0.88 and 1.19 and 0.76 and 1.31 and 0.8 and 0.72 and 1.01 and 0.19 and 1.11
Cpt1a mRNA (RT-qPCR) [2, 4]: 1.05 and 0.92 and 2.34 and 0.85 and 1.37 and 0.77 and 1.27 and 0.96 and 1.08 and 0.81 and 0.88
FaSN mRNA (RT-qPCR) [2, 4]: 0.51 and 0.56 and 0.8 and 0.98 and 0.62 and 0.37 and 0.54 and 0.38 and 0.73 and 0.14 and 0.71
Plin2 mRNA (RT-qPCR) [2, 4]: 0.41 and 0.63 and 0.49 and 0.9 and 0.62 and 0.85 and 0.58 and 0.57 and 1 and 0.16 and 0.74
Pnpla3 mRNA (RT-qPCR) [2, 4]: 1.72 and 1.4 and 0.48 and 1.37 and 0.96 and 0.84 and 0.35 and 0.25 and 1.49 and 0.03 and 1.94
Ppara mRNA (RT-qPCR) [2, 4]: 0.97 and 0.71 and 1.1 and 0.18 and 1.04
Scd1 mRNA (RT-qPCR) [2, 4]: 0.36 and 0.67 and 0.33 and 0.76 and 0.51 and 0.6 and 0.47 and 0.34 and 0.52 and 0.56
liver Scd1 mRNA, RT-qPCR (n = 11) ([2]; HFD study, P = 0.0036): significantly downregulated
liver Fasn and Plin2 mRNA, RT-qPCR ([2]; HFD study, P = 0.007 and P = 0.018): significantly downregulated
liver Cyp7a1 and Cyp8b1 proteins ([2]; HFD study, Western blotting): significant upregulation
liver Insig1 prot, individual samples ([2]; HFD study, Western blotting): 3.8 and 3.3 and 3.1 and 2.9
liver Srebp1 120 kDa protein or mature nuclear fragments (mSrebp1) ([2]; HFD study, Western blotting): did not see any significant decrease
liver Mrp4 prot, individual samples ([2]; HFD study, Western blotting, relative to control): 1.89 and 1.6214 and 2.1487 and 1.571
liver Srebp1/2 protein, lower block, first control/MI-883 pair [2, 5]: 1.8 and 1.6 and 1.7 and 1.1
liver Srebp1/2 protein, lower block, second control/MI-883 pair [2, 5]: 0.6 and 0.7 and 0.5
liver Srebp1/2 protein, upper block, second control/MI-883 pair [2, 5]: 1.7 and 1.5 and 1.1 and 1.2
liver mature nuclear mSrepb2 protein ([2]; HFD study, effect is not significant): may decrease
liver Cyp7a1 mRNA, RT-qPCR, individual animals ([2]; HFD study, relative to control): 0.7586 and 0.4023 and 0.5977 and 0.2759 and 0.5402 and 0.954 and 0.4943 and 0.9885 and 0.5172
liver Insig1 mRNA, RT-qPCR, individual animals ([2]; HFD study, relative to control): 1.68 and 2.22 and 0.72 and 0.43 and 1.13 and 1.06 and 1.18 and 2.34 and 1.52 and 1.27 and 0.68
liver Mrp4 mRNA, RT-qPCR, individual animals ([2]; HFD study, relative to control): 4.091 and 6.648 and 4.182 and 4.443 and 4.045 and 2.545 and 4.341 and 10.0455 and 5.239 and 3.409
liver Srebf1 mRNA, RT-qPCR, individual animals ([2]; HFD study, relative to control): 0.7619 and 0.9619 and 0.5619 and 0.6 and 1.105 and 0.7714 and 0.7143 and 0.8857 and 0.819 and 0.4571
liver Sult2a1 mRNA, RT-qPCR, individual animals ([2]; HFD study, relative to control): 4.077 and 3.288 and 1.404 and 2.538 and 0.8846 and 1.615
liver Ugt1a1 mRNA, RT-qPCR, individual animals ([2]; HFD study, relative to control): 1.852 and 2.477 and 1.455 and 1.284 and 1 and 1.58 and 1.148 and 2.057 and 2 and 2.17 and 0.8977
liver Ugt2b34 mRNA, RT-qPCR, individual animals ([2]; HFD study, relative to control): 1.412 and 2.106 and 2.063 and 1.118 and 1.379 and 0.7926
liver murine Gadd45b mRNA and Meg3 lncRNA ([2]; PXR-CAR-CYP3A4/3A7 mice (Fig. 7a)): statistically significant upregulation
Bcl2 expression (Fig. 7a) [2, 6]: 0.87 and 0.95 and 0.93 and 1.25 and 1.35 and 0.29
Cdkn1a expression (Fig. 7a) [2, 6]: 1.39 and 0.41 and 0.43 and 0.27 and 1.57 and 0.35
Foxm1 expression (Fig. 7a) [2, 6]: 2.03 and 1.26 and 1.41 and 1.28 and 1.37 and 0.42
Gadd45b expression (Fig. 7a) [2, 6]: 2.07 and 7.83 and 4.06 and 7.82 and 5.69 and 2.44
Mcl1 expression (Fig. 7a) [2, 6]: 0.58 and 1.09 and 0.6 and 1.16 and 0.84 and 0.26
Meg3 expression (Fig. 7a) [2, 6]: 2.24 and 7.88 and 3.05 and 3.57 and 2.39
Mki67 expression (Fig. 7a) [2, 6]: 1.7 and 1.18 and 1.43 and 1.11 and 1.31 and 0.71
Pcna expression (Fig. 7a) [2, 6]: 0.78 and 1.24 and 0.66 and 0.89 and 0.57 and 0.36
NRs assays: LXRbeta (relative to ctrl, replicates) (LXRβ): 0.51 and 0.81 and 0.55
NRs assays: PPARd (relative to ctrl, replicates) (PPARδ/β): 1.06 and 1.19 and 1.12
